Like-named read-outs stand apart in the source and are kept apart here.
Legend:
HSALR strain 20b mice = assay: DM1 mouse efficacy study: RT-PCR of MBNL1-dependent splicing targets in gastrocnemius; format: in vivo; details: sc, subcutaneous
r(CUG)12-MBNL1 complex = assay: Inhibition of the r(CUG)12-MBNL1 complex measured by TR-FRET; format: biochemical; details: 80 nM RNA, 60 nM MBNL1-His6
[1] = tested on: MBNL1 exon 5 inclusion in DM1 myotubes; assay: Myotube splicing rescue assay (MBNL1 exon 5 inclusion); format: cell-based, human; details: 48-hour incubation
[2] = 7.5 mg/kg qod 8 doses, read-out: Clcn1 exon 7a splicing rescue %
[3] = 7.5 mg/kg qod 8 doses, read-out: Mbnl1 exon 5 splicing rescue %
[4] = 7.5 mg/kg qod 8 doses, read-out: Serca1 exon 22 splicing rescue %
[5] = 7.5 mg/kg qod 8 doses, read-out: Zasp exon 11 splicing rescue %
[6] = 7.5 mg/kg qod 5 doses, read-out: Clcn1 exon 7a splicing rescue %
[7] = 7.5 mg/kg qod 5 doses, read-out: Mbnl1 exon 5 splicing rescue %
[8] = 7.5 mg/kg qod 5 doses, read-out: Serca1 exon 22 splicing rescue %

IC50 (r(CUG)12-MBNL1 complex; Table L) [µM]	IC50 (r(CUG)12-MBNL1 complex; Table M) [µM]	SMILES	MBNL1 % splicing rescue at 1 μM [1] [%]	MBNL1 % splicing rescue at 10 μM [1] [%]	also measured
29	–	CN(C)CCOc1ccc(-c2nc3cc(-c4ccc5[nH]c(-c6ccc(OCCN(C)C)cc6)nc5c4)ccc3[nH]2)cc1 [Compound 153]	82.1	106.1	percent splicing rescue at 7.5 mg/kg (HSALR strain 20b mice; [2]): 48.4%; percent splicing rescue at 7.5 mg/kg (HSALR strain 20b mice; [3]): 40.8%; percent splicing rescue at 7.5 mg/kg (HSALR strain 20b mice; [4]): 34%; percent splicing rescue at 7.5 mg/kg (HSALR strain 20b mice; [5]): 59.7%
10.7	–	CN(C)CCCOc1ccc(-c2nc3cc(-c4ccc5[nH]c(-c6ccc(OCCCN(C)C)cc6)nc5c4)ccc3[nH]2)cc1 [Compound 152]	85.4	79.8	percent splicing rescue at 7.5 mg/kg (HSALR strain 20b mice; [3]): 40.6%; percent splicing rescue at 7.5 mg/kg (HSALR strain 20b mice; [4]): -19.8%; percent splicing rescue at 7.5 mg/kg (HSALR strain 20b mice; [5]): 46.1%
40	–	CN(C)CCCSc1ccc2nc(-c3ccc(-c4nc5ccc(SCCCN(C)C)cc5[nH]4)cc3)[nH]c2c1 [Compound 60, 3,3′-((2,2′-(1,4-phenylene)bis(1H-benzo[d]imidazole-6,2-diyl))bis(sulfanediyl))bis(N,N-dimethylpropan-1-amine)]	18.9	80.9	percent splicing rescue at 7.5 mg/kg (HSALR strain 20b mice; [6]): 87.7%; percent splicing rescue at 7.5 mg/kg (HSALR strain 20b mice; [7]): 95.3%; percent splicing rescue at 7.5 mg/kg (HSALR strain 20b mice; [8]): 86%; percent splicing rescue at 7.5 mg/kg (HSALR strain 20b mice; 7.5 mg/kg qod 5 doses, read-out: Zasp exon 11 splicing rescue %): 88.3%
13	–	CN(C)CCNC(=O)c1ccc(-c2nc3cc(-c4ccc5[nH]c(-c6ccc(C(=O)NCCN(C)C)cc6)nc5c4)ccc3[nH]2)cc1 [Compound 108, 4,4′-(1H,1′H-[5,5′-bibenzo[d]imidazole]-2,2′-diyl)bis(N-(2-(dimethylamino)ethyl)benzamide)]	0.0	63.4	percent splicing rescue at 30 mg/kg (HSALR strain 20b mice; 30 mg/kg qod 8 doses, read-out: Clcn1 exon 7a splicing rescue %): 32.5%; percent splicing rescue at 30 mg/kg (HSALR strain 20b mice; 30 mg/kg qod 8 doses, read-out: Mbnl1 exon 5 splicing rescue %): 57.4%; percent splicing rescue at 30 mg/kg (HSALR strain 20b mice; 30 mg/kg qod 8 doses, read-out: Serca1 exon 22 splicing rescue %): 59.1%; percent splicing rescue at 30 mg/kg (HSALR strain 20b mice; 30 mg/kg qod 8 doses, read-out: Zasp exon 11 splicing rescue %): 50.1%
19.8	–	CN(C)CCCOc1ccc2nc(-c3ccc(-c4nc5ccc(OCCCN(C)C)cc5[nH]4)cc3)[nH]c2c1 [Compound 58, 3,3′-((2,2′-(1,4-phenylene)bis(1H-benzo[d]imidazole-6,2-diyl))bis(oxy))bis(N,N-dimethylpropan-1-amine)]	11.0	79.1	percent splicing rescue at 7.5 mg/kg (HSALR strain 20b mice; [2]): 68.3%; percent splicing rescue at 7.5 mg/kg (HSALR strain 20b mice; [3]): 80.2%; percent splicing rescue at 7.5 mg/kg (HSALR strain 20b mice; [4]): 90.5%; percent splicing rescue at 7.5 mg/kg (HSALR strain 20b mice; [5]): 102%
–	6.45	CN(C)CCCOc1ccc(-c2nc3cc(-c4ccc5[nH]c(-c6ccc(C(=O)NCCN(C)C)cc6)nc5c4)ccc3[nH]2)cc1 [Compound 346]	79.9	74.8	percent splicing rescue at 7.5 mg/kg (HSALR strain 20b mice; [6]): 105%; percent splicing rescue at 7.5 mg/kg (HSALR strain 20b mice; [7]): 11.8%; percent splicing rescue at 7.5 mg/kg (HSALR strain 20b mice; [8]): 22.3%
6.2	–	CN(C)CCNC(=O)c1ccc2nc(-c3ccc(-c4nc5ccc(C(=O)NCCN(C)C)cc5[nH]4)cc3)[nH]c2c1 [Compound 16, 2,2′-(1,4-phenylene)bis(N-(2-(dimethylamino)ethyl)-1H-benzo[d]imidazole-6-carboxamide)]	–	−4.3	–
–	18.9	CN(C)CCCOc1ccc2nc(-c3ccc(-c4nc5ccc(OCCCC(=O)OC(C)(C)C)cc5[nH]4)cc3)[nH]c2c1 [Compound 252, tert-butyl 4-((2-(4-(5-(3-(dimethylamino)propoxy)-1H-benzo[d]imidazol-2-yl)phenyl)-1H-benzo[d]imidazol-5-yl)oxy)butanoate]	–	13.0	–
–	0.51	CN(C)CCNC(=O)c1ccc(-c2nc3cc(-c4ccc5[nH]c(-c6ccc(C(=O)NCCN(C)CCCCc7cn(CCCNC(=O)CCC(=O)NCCCn8cc(CCCCN(C)CCNC(=O)c9ccc(-c%10nc%11cc(-c%12ccc%13[nH]c(-c%14ccc(C(=O)NCCN(C)C)cc%14)nc%13c%12)ccc%11[nH]%10)cc9)nn8)nn7)cc6)nc5c4)ccc3[nH]2)cc1 [Compound 408]	3.9	–	–
–	5.6	C#CCCCCN(C)CCNC(=O)c1ccc(-c2nc3cc(-c4ccc5[nH]c(-c6ccc(OCCCN(C)C)cc6)nc5c4)ccc3[nH]2)cc1 [Compound 403]	–	90.5	–
–	42	CN(C)CCCS(=O)(=O)c1ccc2[nH]c(-c3ccc(-c4nc5cc(S(=O)(=O)CCCN(C)C)ccc5[nH]4)cc3)nc2c1 [Compound 202, 3,3′-(2,2′-(1,4-phenylene)bis(1H-benzo[d]imidazole-6,6′-sulfonyl))bis(N,N-dimethylpropan-1-amine)]	–	34.0	–
3.2	–	Nc1ccc2nc(-c3ccc(-c4nc5ccc(NC6=NCCN6C6=NCCN6)cc5[nH]4)cc3)[nH]c2c1 [Compound 75, 2-(4-(6-amino-1H-benzo[d]imidazol-2-yl)phenyl)-N-(4,4′,5,5′-tetrahydro-1H-[1,2′-biimidazol]-2-yl)-1H-benzo[d]imidazol-6-amine]	–	0.0	percent splicing rescue at 30 mg/kg (HSALR strain 20b mice; 30 mg/kg qd 7 doses, read-out: Clcn1 exon 7a splicing rescue %): 39.4%; percent splicing rescue at 30 mg/kg (HSALR strain 20b mice; 30 mg/kg qd 7 doses, read-out: Mbnl1 exon 5 splicing rescue %): 93.9%; percent splicing rescue at 30 mg/kg (HSALR strain 20b mice; 30 mg/kg qd 7 doses, read-out: Serca1 exon 22 splicing rescue %): 50%; percent splicing rescue at 30 mg/kg (HSALR strain 20b mice; 30 mg/kg qd 7 doses, read-out: Zasp exon 11 splicing rescue %): 95.6%
–	16.9	c1cc(-c2nc3cc(-c4ccc5[nH]c(-c6ccc(OCCN7CCCCC7)cc6)nc5c4)ccc3[nH]2)ccc1OCCN1CCCCC1 [Compound 350]	47.2	–	–
–	3.7	C#CCOc1cc(-c2nc3ccc(OCCCN(C)C)cc3[nH]2)ccc1-c1nc2ccc(OCCCN(C)C)cc2[nH]1 [Compound 255, 3,3′-((2,2′-(2-(prop-2-yn-1-yloxy)-1,4-phenylene)bis(1H-benzo[d]imidazole-6,2-diyl))bis(oxy))bis(N,N-dimethylpropan-1-amine)]	–	89.2	–
–	5.8	CN(C)CCCOc1cc2nc(-c3ccc(-c4nc5cc(Cl)c(OCCCN(C)C)cc5[nH]4)cc3)[nH]c2cc1Cl [Compound 304, (3-[[6-chloro-2-(4-[5-chloro-6-[3-(dimethylamino)propoxy]-1H-1,3-benzodiazol-2-yl]phenyl)-1H-1,3-benzodiazol-5-yl]oxy]propyl)dimethylamine]	–	−42.3	–
–	12.9	CN(C)CCCCCOc1ccc2nc(-c3ccc(-c4nc5ccc(OCCCCCN(C)C)cc5[nH]4)cc3)[nH]c2c1 [Compound 192]	–	111.7	–
6.8	–	O=C(NCCN1CCNCC1)c1ccc2nc(-c3ccc(-c4nc5ccc(C(=O)NCCN6CCNCC6)cc5[nH]4)cc3)[nH]c2c1 [Compound 47, 2,2′-(1,4-phenylene)bis(N-(2-(piperazin-1-yl)ethyl)-1H-benzo[d]imidazole-6-carboxamide)]	–	12.8	–
–	10.6	C#CCCCCN(C)CCNC(=O)c1ccc(-c2nc3cc(-c4ccc5[nH]c(-c6ccc(C(=O)NCCN(C)C)cc6)nc5c4)ccc3[nH]2)cc1 [Compound 401, N-(2-(dimethylamino)ethyl)-4-(2′-(4-((2-(hex-5-yn-1-yl(methyl)amino)ethyl)carbamoyl)phenyl)-1H,1′H-[5,5′-bibenzo[d]imidazol]-2-yl)benzamide]	–	–	MBNL1 % splicing rescue at 5 μM ([1]; 5 μM): −11.3%
3.6	–	N=C(N)NCCC(=O)Nc1ccc2nc(-c3ccc(-c4nc5ccc(NC(=O)CCNC(=N)N)cc5[nH]4)cc3)[nH]c2c1 [Compound 65]	31.7	–	–
–	4.56	CN1CCC(NC(=O)c2ccc(-c3nc4cc(-c5ccc6[nH]c(-c7ccc(C(=O)NC8CCN(C)CC8)cc7)nc6c5)ccc4[nH]3)cc2)CC1 [Compound 338]	7.8	−5.3	–

SMILES	IC50 (r(CUG)12-MBNL1 complex; Table L) [µM]	IC50 (r(CUG)12-MBNL1 complex; Table M) [µM]	MBNL1 % splicing rescue at 1 μM [1] [%]	MBNL1 % splicing rescue at 10 μM [1] [%]	also measured
NCCN1CCN(CCNC(=O)c2ccc3nc(-c4ccc(-c5nc6ccc(C(=O)NCCN7CCCCC7)cc6[nH]5)cc4)[nH]c3c2)CC1 [Compound 185, N-(2-(4-(2-aminoethyl)piperazin-1-yl)ethyl)-2-(4-(6-((2-(piperidin-1-yl)ethyl)carbamoyl)-1H-benzo[d]imidazol-2-yl)phenyl)-1H-benzo[d]imidazole-6-carboxamide]	–	8.13	–	39.2	–
[N-]=[N+]=NCCN1CCN(CCNC(=O)c2ccc3nc(-c4ccc(-c5nc6ccc(C(=O)NCCN7CCCCC7)cc6[nH]5)cc4)[nH]c3c2)CC1 [Compound 172, N-(2-(4-(2-azidoethyl)piperazin-1-yl)ethyl)-2-(4-(6-((2-(piperidin-1-yl)ethyl)carbamoyl)-1H-benzo[d]imidazol-2-yl)phenyl)-1H-benzo[d]imidazole-6-carboxamide]	–	28.3	22.1	14.2	–

Source: US10961202B2, “Bis-benzimidazole compounds and methods of using the same” (THE SCRIPPS RESEARCH INSTITUTE, priority 2017, dated 2021)
